Values of other authors in patent publication US20230303507A1, “RIGID C[…] AS POTENT MODULATORS OF CANNABINOID RECEPTORS AND USES THEREOF” (priority 2020, published 2023).

Biological target: CB2 (Homo sapiens, UniProt P34972)
Sequence (P34972 whole entry, species assumed): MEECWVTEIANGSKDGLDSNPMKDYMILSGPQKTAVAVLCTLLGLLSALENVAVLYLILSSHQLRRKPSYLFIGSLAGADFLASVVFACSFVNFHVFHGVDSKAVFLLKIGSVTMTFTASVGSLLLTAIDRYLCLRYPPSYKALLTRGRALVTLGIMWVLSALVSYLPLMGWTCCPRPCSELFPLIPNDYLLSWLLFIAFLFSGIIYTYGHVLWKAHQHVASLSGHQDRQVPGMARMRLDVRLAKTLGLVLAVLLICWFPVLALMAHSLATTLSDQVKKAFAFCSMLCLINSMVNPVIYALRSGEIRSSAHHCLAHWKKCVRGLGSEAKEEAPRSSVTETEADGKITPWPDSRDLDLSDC

SMILES: CCCCCc1cc(O)c2c(c1)OC(C)(C)[C@@H]1CCC(C)=C[C@@H]21 [THC, delta-9-tetrahydrocannabinol]
- mode of action on CB2: partial agonist

SMILES: C=C(C)[C@@H]1CCC(C)=C[C@H]1c1c(O)cc(CCCCC)cc1O [CBD, cannabidiol]
- mode of action on CB2: weak inverse agonist
